Laboratory results published in patent publication US7989165B2, “Tape stripping methods for analysis of skin disease and pathological skin state” (DermTech International, priority 2004, dated 2011).
Where “and” joins values, the source holds several entries; their conditions need not be identical. Equal entries are not always repeated.

How the values were obtained:
Type in all cases: in vivo, human
[1] = test system: IL-23A mRNA; experiment: RT-PCR of IL-23A mRNA in tape-stripped psoriatic lesions during Enbrel treatment; conditions: week 8 of treatment
Method: (§1) Patients were treated with Enbrel™ (Etanercept) over a period of months. Both before treatment commenced (week 0) and at various time points during treatment, a lesion was tape stripped using the synthetic rubber-based adhesive MA70 (Adhesives Research) on a polyurethane film. Adhesive strips were manufactured as circles of 17 mm diameter. Skin sites were sequentially stripped with 4 individual tapes, with each tape applied and removed once. The RNA isolated from the adherent cells on all 4 tapes (from one site) was pooled into one sample. Quantitation was by quantitative RT-PCR using the comparative method with β-actin mRNA as the internal normalizing mRNA standard and calibration achieved by using population average values for ΔCt in uninvolved skin of psoriatic subjects (Table 1).

[2] = test system: psoriasis; experiment: Clinical assessment of psoriasis (NPF Score) during Enbrel treatment; design: NPF Score: scale not given here
Method: as §1
Rather than calibrate the lesion samples to uninvolved skin of each patient, we have chosen to calibrate to population average values to gain a fold-change relative to non-psoriatic skin. The results of calibrating to each patient's uninvolved skin values were virtually identical (data not shown). […] Thus, positive changes in ΔCt values of these specific mRNAs are negatively correlated with the change from baseline at week 8 in NPF scores. […] In order to assess the significance this observation, the AC, and NPF data in Table 10 was analyzed.

[3] = test system: IL-12B mRNA; experiment: RT-PCR of IL-12B mRNA in tape-stripped psoriatic lesions during Enbrel treatment; conditions: week 8 of treatment
Method: as §1

[4] = test system: TNFα mRNA; experiment: RT-PCR of TNFα mRNA in tape-stripped psoriatic lesions during Enbrel treatment; conditions: week 8 of treatment
Method: as §1

[5] = test system: GAPDH mRNA; experiment: RT-PCR of GAPDH mRNA in tape-stripped psoriatic lesions during Enbrel treatment; conditions: week 8 of treatment
Method: as §1

[6] = test system: IFNγ mRNA; experiment: RT-PCR of IFNγ mRNA in tape-stripped psoriatic lesions during Enbrel treatment; conditions: week 8 of treatment
Method: as §1

[7] = psoriatic lesion, tape-harvested RNA, relative to β-actin mRNA, one value per patient (P2-P7)

## Enbrel
[1]; IL-23A/β-actin mRNA ratio in lesion relative to population average of uninvolved skin, per patient
  Fold Change (Pop-UIS), IL-23A mRNA: 5.43 fold and 24.25 fold and 5.70 fold and 9.99 fold and 17.03 fold and 18.64 fold
[1]; [7]
  ΔCt (Lesion), IL-23A mRNA: 6.59 and 4.85 and 6.52 and 5.71 and 4.94 and 4.81
[2]; National Psoriasis Foundation Score at week 8 of treatment, one value per patient (P2-P7)
  NPF Score: 10.7 (5×) and 10.3 (5×) and 16.7 (5×) and 18.7 (5×) and 11.7 (5×) and 12 (5×)
[2]; psoriatic patients, 8 weeks of treatment, negative indicates improvement in disease
  change in NPF score from baseline to week 8: negative
[3]; IL-12B/β-actin mRNA ratio in lesion relative to population average of uninvolved skin, per patient
  Fold Change (Pop-UIS), IL-12B mRNA: 0.51 fold and 9.45 fold and 5.31 fold and 11.24 fold and 27.86 fold and 105.42 fold
[3]; [7]
  ΔCt (Lesion), IL-12B mRNA: 12.48 and 7.35 and 9.09 and >8.01 and 6.7 and 4.78
[4]; TNFα/β-actin mRNA ratio in lesion relative to population average of uninvolved skin, per patient
  Fold Change (Pop-UIS), TNFα mRNA: 10.06 fold and 16.56 fold and 5.66 fold and 9.00 fold and 11.47 fold and 17.27 fold
[4]; [7]
  ΔCt (Lesion), TNFα mRNA: 4.99 and 4.27 and 5.82 and 5.15 and 4.8 and 4.21
[5]; GAPDH/β-actin mRNA ratio in lesion relative to population average of uninvolved skin, per patient
  Fold Change (Pop-UIS), GAPDH mRNA: 2.04 fold and 1.69 fold and 1.59 fold and 1.40 fold and 1.77 fold and 2.07 fold
[5]; [7]
  ΔCt (Lesion), GAPDH mRNA: 1.04 and 1.31 and 1.4 and 1.58 and 1.25 and 1.02
[6]; INFγ/β-actin mRNA ratio in lesion relative to population average of uninvolved skin, per patient
  Fold Change (Pop-UIS), INFγ mRNA: 0.59 fold and 48.17 fold and 1.49 fold and 8.17 fold and 2.58 fold and 3.25 fold
[6]; [7]
  ΔCt (Lesion), INFγ mRNA: 11.27 and 4.91 and 9.92 and 7.47 and 9.13 and 8.8
